Experimental data: ChEMBL document CHEMBL3396995, “Synthesis and biological evaluation of novel pyrrolidine acid analogs as potent dual PPARα/γ agonists” (Bioorg Med Chem Lett, 2015); call rule not given here

Columns and labels:
[1] = target: T1, Peroxisome proliferator-activated receptor gamma (Homo sapiens, UniProt P37231); assay: Agonist activity at GAL4 tagged human PPARgamma ligand binding domain expressed in HEK293 cells by luciferase reporter gene assay; assay type: cell-based
T1 sequence (P37231 whole entry): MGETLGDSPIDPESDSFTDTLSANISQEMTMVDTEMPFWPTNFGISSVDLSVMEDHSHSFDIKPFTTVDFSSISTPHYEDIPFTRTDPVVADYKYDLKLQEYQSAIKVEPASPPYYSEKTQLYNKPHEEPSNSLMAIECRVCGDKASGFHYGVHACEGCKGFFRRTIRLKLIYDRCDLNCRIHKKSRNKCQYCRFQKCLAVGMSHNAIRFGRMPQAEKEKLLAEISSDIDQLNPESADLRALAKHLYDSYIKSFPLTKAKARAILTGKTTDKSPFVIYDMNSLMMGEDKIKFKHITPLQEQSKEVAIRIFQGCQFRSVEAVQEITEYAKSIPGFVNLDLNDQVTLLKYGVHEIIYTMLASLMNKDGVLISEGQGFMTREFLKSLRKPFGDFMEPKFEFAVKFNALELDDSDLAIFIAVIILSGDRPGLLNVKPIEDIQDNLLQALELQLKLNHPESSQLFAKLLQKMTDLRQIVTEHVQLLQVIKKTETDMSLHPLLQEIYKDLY

[2] = target: T2, Peroxisome proliferator-activated receptor alpha (Homo sapiens, UniProt Q07869); assay: Agonist activity at GAL4 tagged human PPARalpha ligand binding domain expressed in HEK293 cells by luciferase reporter gene assay; assay type: cell-based
T2 sequence (Q07869 whole entry): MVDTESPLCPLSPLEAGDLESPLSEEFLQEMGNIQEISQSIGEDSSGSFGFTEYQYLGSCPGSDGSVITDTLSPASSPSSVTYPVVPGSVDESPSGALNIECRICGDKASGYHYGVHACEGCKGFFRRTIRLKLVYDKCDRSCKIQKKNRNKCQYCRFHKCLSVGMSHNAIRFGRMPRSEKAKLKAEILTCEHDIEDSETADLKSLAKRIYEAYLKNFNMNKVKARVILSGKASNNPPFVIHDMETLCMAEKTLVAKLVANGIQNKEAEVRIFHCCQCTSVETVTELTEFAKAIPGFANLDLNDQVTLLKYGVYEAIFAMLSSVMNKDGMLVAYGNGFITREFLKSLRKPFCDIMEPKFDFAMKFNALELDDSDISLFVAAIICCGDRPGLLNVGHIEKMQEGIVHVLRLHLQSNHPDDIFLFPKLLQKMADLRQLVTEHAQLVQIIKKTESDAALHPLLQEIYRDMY

[3] = target: T2, Peroxisome proliferator-activated receptor alpha; assay: Binding affinity to PPARalpha (unknown origin) using fluorescein-tagged dual PPARalpha/gamma activator by homogeneous fluorescence polarization binding assay
[4] = target: T1, Peroxisome proliferator-activated receptor gamma
Description: Binding affinity to PPARgamma (unknown origin) using fluorescein-tagged dual PPARalpha/gamma activator by homogeneous fluorescence polarization binding assay

| Structure (SMILES) | EC50 [1] [µM] | EC50 ([2]; hek293) | IC50 [3] [µM] | EC50 ([2]; read-out: EC50) [µM] | IC50 [4] [µM] |
| --- | --- | --- | --- | --- | --- |
| COc1ccc(OC(=O)N2[C@H](C(=O)O)CC[C@H]2c2ccc(OCCc3nc(-c4ccccc4)oc3C)cc2)cc1 | 0.05 | Not Active |  |  |  |
| Cc1oc(-c2ccccc2)nc1CCOc1cccc(C[C@@H]2CN(C(=O)Oc3ccccc3)C[C@@H]2C(=O)O)c1 | 2 |  | 0.07 | 0.004 | 0.49 |
| Cc1oc(-c2ccccc2)nc1CCOc1cccc(C[C@H]2CN(C(=O)Oc3ccccc3)C[C@H]2C(=O)O)c1 | 13.3 |  | 0.66 | 0.95 | 0.59 |
| Cc1oc(-c2ccccc2)nc1CCOc1cccc(C[C@@H]2CN(c3ccccc3)C[C@@H]2C(=O)O)c1 | 3.44 |  | 0.07 | 0.05 | 0.08 |
| Cc1oc(-c2ccccc2)nc1CCOc1cccc(C[C@H]2CN(c3ccccc3)C[C@H]2C(=O)O)c1 | > 10 |  | 0.32 | 0.68 | 0.14 |
| Cc1oc(-c2ccccc2)nc1CCOc1cccc(C[C@@H]2CN(c3nccc(C(F)(F)F)n3)C[C@@H]2C(=O)O)c1 | 2.5 |  | 0.02 | 0.014 | 0.04 |
| Cc1oc(-c2ccccc2)nc1CCOc1cccc(C[C@H]2CN(c3nccc(C(F)(F)F)n3)C[C@H]2C(=O)O)c1 | > 10 |  | 1.12 | > 10 | 0.11 |
| Cc1oc(-c2ccccc2)nc1CCOc1ccc(C[C@H]2CN(c3nccc(C(F)(F)F)n3)C[C@H]2C(=O)O)cc1 | > 10 |  | > 10 | > 10 | 1.53 |
| Cc1oc(-c2ccccc2)nc1CCOc1ccc(C[C@H]2CN(c3nccc(C(F)(F)F)n3)C[C@@H]2C(=O)O)cc1 | > 30 |  | 1.12 | 1 | 3.57 |
| Cc1oc(-c2ccccc2)nc1CCOc1ccc(C[C@@H]2CN(c3nccc(C(F)(F)F)n3)C[C@H]2C(=O)O)cc1 | > 30 |  | > 50 | 4.41 | 1.16 |
| CCOC(=O)N1C[C@@H](Cc2cccc(OCCc3nc(-c4ccccc4)oc3C)c2)[C@@H](CC(=O)O)C1 | > 10 |  | 5.55 | 2.87 |  |
| Cc1oc(-c2ccccc2)nc1CCOc1ccc(C[C@@H]2CN(c3nccc(C(F)(F)F)n3)C[C@@H]2C(=O)O)cc1 (racemic) | 0.05 |  | 0.74 | 0.03 | 0.03 |
| Cc1oc(-c2ccccc2)nc1CCOc1cccc([C@@H]2CN(C(=O)Oc3ccccc3)C[C@@H]2CC(=O)O)c1 (racemic) | 4.8 |  | 4.02 | 3.55 | 0.24 |
| Cc1oc(-c2ccccc2)nc1CCOc1cccc([C@H]2CN(C(=O)Oc3ccccc3)C[C@@H]2CC(=O)O)c1 (racemic) | 14.6 |  | > 10 | 11.7 | 1.82 |
| Cc1oc(-c2ccccc2)nc1CCOc1cccc(C[C@@H]2CN(C(=O)Oc3ccccc3)C[C@@H]2C(=O)O)c1 (racemic) | 1.25 |  | 0.22 | 0.01 | 1.33 |
| Cc1oc(-c2ccccc2)nc1CCOc1cccc(C[C@H]2CN(C(=O)Oc3ccccc3)C[C@@H]2C(=O)O)c1 (racemic) | 6.17 |  | 3.09 | 2.59 | 3.63 |
| Cc1oc(-c2ccccc2)nc1CCOc1cccc(C[C@@H]2CN(c3ccccc3)C[C@@H]2C(=O)O)c1 (racemic) | 3.41 |  | 0.04 | 0.02 | 0.22 |
| Cc1oc(-c2ccccc2)nc1CCOc1ccc(C[C@@H]2CN(c3ncccn3)C[C@@H]2C(=O)O)cc1 (racemic) | 1.06 |  | > 10 | 2.91 | 2.04 |
| Cc1ccnc(N2C[C@@H](Cc3ccc(OCCc4nc(-c5ccccc5)oc4C)cc3)[C@@H](C(=O)O)C2)n1 (racemic) | 0.63 |  | 3.98 | 0.17 | 0.45 |
| Cc1oc(-c2ccccc2)nc1CCOc1ccc(C[C@@H]2CN(c3nc4ccccc4o3)C[C@@H]2C(=O)O)cc1 (racemic) | 2.08 |  | 2.19 | 2.48 | 0.59 |
| Cc1oc(-c2ccccc2)nc1CCOc1ccc(C[C@@H]2CN(c3nc(C(F)(F)F)co3)C[C@@H]2C(=O)O)cc1 (racemic) | > 30 |  | 5.01 | 1.47 | 0.05 |
| Cc1oc(-c2ccccc2)nc1CCOc1cccc(CC[C@@H]2CN(C(=O)Oc3ccccc3)C[C@@H]2C(=O)O)c1 (racemic) | 0.63 |  | 1.06 | 0.008 | 0.21 |
| Cc1oc(-c2ccccc2)nc1CCOc1cccc(CC[C@H]2CN(C(=O)Oc3ccccc3)C[C@@H]2C(=O)O)c1 (racemic) | 1.17 |  | > 10 | 2.6 | 0.52 |

Next, values leading:

| EC50 [1] [µM] | EC50 ([2]; hek293) | IC50 [3] [µM] | EC50 ([2]; read-out: EC50) [µM] | IC50 [4] [µM] | Structure (SMILES) |
| --- | --- | --- | --- | --- | --- |
| 0.009 |  | 0.26 | 0.003 |  | CCOC(=O)N1C[C@@H](Cc2cccc(OCCc3nc(-c4ccccc4)oc3C)c2)[C@@H](C(=O)O)C1 |
| > 10 |  | > 10 | 10.9 |  | CCOC(=O)N1C[C@H](Cc2cccc(OCCc3nc(-c4ccccc4)oc3C)c2)[C@H](C(=O)O)C1 |
| 24 |  | > 10 | 20 | > 10 | CCOC(=O)N1C[C@H](C(=O)O)[C@H](c2cccc(OCCc3nc(-c4ccccc4)oc3C)c2)C1 (racemic) |
| 5.65 |  | > 10 | 1.65 | > 10 | Cc1oc(-c2ccccc2)nc1CCOc1cccc([C@@H]2CN(C(=O)Oc3ccccc3)C[C@@H]2C(=O)O)c1 (racemic) |
| > 32 |  | > 10 | > 15 | > 10 | CCOC(=O)N1C[C@H](C(=O)O)[C@H](c2ccc(OCCc3nc(-c4ccccc4)oc3C)cc2)C1 (racemic) |
| 4.18 |  | > 10 | > 15 | 4.47 | Cc1oc(-c2ccccc2)nc1CCOc1ccc([C@@H]2CN(C(=O)Oc3ccccc3)C[C@@H]2C(=O)O)cc1 (racemic) |
| > 32 |  | > 10 | > 15 | > 10 | CCOC(=O)N1C[C@H](C(=O)O)[C@@H](c2ccc(OCCc3nc(-c4ccccc4)oc3C)cc2)C1 (racemic) |
| 0.01 |  | 2.86 | 2.58 | 5.86 | Cc1oc(-c2ccccc2)nc1CCOc1ccc([C@H]2CN(C(=O)Oc3ccccc3)C[C@@H]2C(=O)O)cc1 (racemic) |
| 0.02 |  | 0.99 | 1.13 | 0.91 | CCOC(=O)N1C[C@H](CC(=O)O)[C@H](c2cccc(OCCc3nc(-c4ccccc4)oc3C)c2)C1 (racemic) |
| 9.68 |  | > 10 | 8.1 | 5.46 | CCOC(=O)N1C[C@H](CC(=O)O)[C@@H](c2cccc(OCCc3nc(-c4ccccc4)oc3C)c2)C1 (racemic) |
|  |  | > 10 |  | > 10 | CCOC(=O)N1C[C@H](CC(=O)O)[C@H](c2ccc(OCCc3nc(-c4ccccc4)oc3C)cc2)C1 (racemic) |
| 4.18 |  | > 15 | > 15 | 8.31 | Cc1oc(-c2ccccc2)nc1CCOc1ccc([C@@H]2CN(C(=O)Oc3ccccc3)C[C@@H]2CC(=O)O)cc1 (racemic) |
| 0.75 |  | 0.17 | 0.01 |  | CCOC(=O)N1C[C@@H](Cc2cccc(OCCc3nc(-c4ccccc4)oc3C)c2)[C@@H](C(=O)O)C1 (racemic) |
| 2.85 |  | 2.12 | 0.15 |  | CCOC(=O)N1C[C@H](Cc2cccc(OCCc3nc(-c4ccccc4)oc3C)c2)[C@@H](C(=O)O)C1 (racemic) |
| 0.3 |  | 2.02 | 0.006 | 2.68 | CCOC(=O)N1C[C@@H](Cc2ccc(OCCc3nc(-c4ccccc4)oc3C)cc2)[C@@H](C(=O)O)C1 (racemic) |
| 0.71 |  | 2.69 | 0.2 | 0.49 | CCOC(=O)N1C[C@@H](CCc2cccc(OCCc3nc(-c4ccccc4)oc3C)c2)[C@@H](C(=O)O)C1 (racemic) |
| > 10 |  | 2.12 | 0.006 |  | CCOC(=O)N1C[C@H](CC(=O)O)[C@@H](Cc2cccc(OCCc3nc(-c4ccccc4)oc3C)c2)C1 (racemic) |
